In US6265572A, “Pyrrolidincarbonylamino cyclic disulfide anti-inflammatory agents” (Hoffmann-La Roche Inc., priority 2000, dated 2001):
pIC50: −log10 of the molar value.

What was measured:
[1] = biological target: T1, VLA-4/VCAM-1 (Homo sapiens, UniProt P05556+P13612); experiment: VLA-4/VCAM-1 Screening Assay (solid-phase, dual antibody ELISA); format: binding; details: Ramos cell-derived VLA-4, immobilized recombinant human VCAM-1
T1 construct: Ramos cell-derived VLA-4; endogenous in cells; host or cells: Ramos cells (VLA-4)
T1 sequence (P13612 34-1032): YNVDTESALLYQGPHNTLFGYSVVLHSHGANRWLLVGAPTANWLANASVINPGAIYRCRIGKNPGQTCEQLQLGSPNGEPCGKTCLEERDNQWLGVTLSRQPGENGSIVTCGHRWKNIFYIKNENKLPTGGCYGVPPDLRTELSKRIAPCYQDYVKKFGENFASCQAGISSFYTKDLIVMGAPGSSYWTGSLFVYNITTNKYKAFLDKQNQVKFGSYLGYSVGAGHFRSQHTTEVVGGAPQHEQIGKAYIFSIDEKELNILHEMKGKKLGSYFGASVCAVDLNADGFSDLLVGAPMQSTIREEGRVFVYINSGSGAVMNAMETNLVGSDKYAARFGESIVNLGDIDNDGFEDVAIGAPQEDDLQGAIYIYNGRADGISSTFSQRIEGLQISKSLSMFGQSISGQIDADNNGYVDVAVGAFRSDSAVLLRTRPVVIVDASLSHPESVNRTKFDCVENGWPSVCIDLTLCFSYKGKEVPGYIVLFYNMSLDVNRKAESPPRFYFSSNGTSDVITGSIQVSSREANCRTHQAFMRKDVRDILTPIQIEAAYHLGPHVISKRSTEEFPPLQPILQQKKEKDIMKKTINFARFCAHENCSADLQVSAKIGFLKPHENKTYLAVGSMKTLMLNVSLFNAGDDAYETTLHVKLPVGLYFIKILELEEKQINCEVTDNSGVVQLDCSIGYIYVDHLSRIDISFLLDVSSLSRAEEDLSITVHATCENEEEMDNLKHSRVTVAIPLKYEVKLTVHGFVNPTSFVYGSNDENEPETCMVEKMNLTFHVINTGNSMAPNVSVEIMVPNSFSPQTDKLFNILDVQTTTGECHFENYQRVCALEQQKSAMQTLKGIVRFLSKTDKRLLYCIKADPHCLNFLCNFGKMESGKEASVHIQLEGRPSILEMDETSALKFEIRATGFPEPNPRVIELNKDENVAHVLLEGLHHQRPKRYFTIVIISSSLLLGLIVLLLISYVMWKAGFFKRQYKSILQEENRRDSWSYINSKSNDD
T1 sequence (P05556 21-798): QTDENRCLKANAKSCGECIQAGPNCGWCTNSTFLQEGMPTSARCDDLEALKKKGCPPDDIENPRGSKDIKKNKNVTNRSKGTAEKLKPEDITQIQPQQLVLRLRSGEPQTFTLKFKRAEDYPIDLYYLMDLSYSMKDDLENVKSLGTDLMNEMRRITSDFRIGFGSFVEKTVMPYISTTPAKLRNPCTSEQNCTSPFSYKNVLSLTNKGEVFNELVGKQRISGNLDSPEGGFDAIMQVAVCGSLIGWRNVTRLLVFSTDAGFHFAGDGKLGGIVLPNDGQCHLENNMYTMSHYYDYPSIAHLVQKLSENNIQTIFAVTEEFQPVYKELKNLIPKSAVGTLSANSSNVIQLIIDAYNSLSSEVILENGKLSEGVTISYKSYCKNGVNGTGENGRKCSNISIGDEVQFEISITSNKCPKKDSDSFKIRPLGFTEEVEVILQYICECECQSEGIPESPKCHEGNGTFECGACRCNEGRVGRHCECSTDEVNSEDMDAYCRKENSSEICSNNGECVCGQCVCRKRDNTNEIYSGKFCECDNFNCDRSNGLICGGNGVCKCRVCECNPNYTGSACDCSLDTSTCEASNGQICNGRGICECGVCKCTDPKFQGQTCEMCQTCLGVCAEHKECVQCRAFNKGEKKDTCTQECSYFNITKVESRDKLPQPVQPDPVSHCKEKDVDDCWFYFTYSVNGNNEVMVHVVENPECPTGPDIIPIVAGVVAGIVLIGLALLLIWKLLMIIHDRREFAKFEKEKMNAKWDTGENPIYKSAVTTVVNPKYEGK
Text: A means for determining the potency of these anti-inflammatory agents is by evaluating their ability to inhibit binding of the integrin VLA-4 to the cell adhesion molecule VCAM-1. For example, the potency of the compounds herein can be determined with respect to the concentration of the compound at 50% inhibition of VCAM/VLA4 binding (IC50) as measured by VLA-4/VCAM-1 binding assay.
In accordance with the present invention, any conventional method known in the art can be used to determine inhibition of VCAM-1/VLA-4 binding. For example, a solid-phase dual antibody ELISA or Ramos cell-based screening assay can be utilized to determine inhibition of VCAM-1/VLA-4 binding.
VLA-4/VCAM-1 Screening Assay
VLA-4 antagonist activity, defined as ability to compete for binding to immobilized VCAM-1, was quantitated using a solid-phase, dual antibody ELISA. VLA-4 (α4β1 integrin) bound to VCAM-1 is detected by a complex of anti-integrin β1 antibody: HRP-conjugated anti-mouse IgG: chromogenic substrate (K-Blue). Initially, this entailed coating 96 well plates (Nunc Maxisorp) with recombinant human VCAM-1 (0.4 μg in 100 μl PBS), sealing each plate and then allowing the plates to stand at 4° C. for 18 hours. […] On the day of assay, all plates are washed twice with VCAM Assay Buffer (200 μl/well of 50 mM Tris-HCl, 100 mM NaCl, 1 mM MnCl2, 0.05% T ween 20; pH 7.4). Test compounds are dissolved in 100% DMSO and then diluted 1:20 in VCAM Assay Buffer supplemented with 1 mg/mL BSA (i.e., final DMSO=5%). A series of 1:4 dilutions are performed to achieve a concentration range of 0.005 nM-1.563 μM for each test compound. 100 μl per well of each dilution is added to the VCAM-coated plates, followed by 10 μl of Ramos cell-derived VLA-4. These plates are sequentially mixed on a platform shaker for 1 min, incubated for 2 hour at 37° C., and then washed four times with 200 μl/well VCAM Assay Buffer. 100 μl of mouse anti-human integrin b1 antibody is added to each well (0.6 μg/mL in VCAM Assay Buffer+1 mg/mL BSA) and allowed to incubate for 1 hour at 37° C. At the conclusion of this incubation period, all plates are washed four times with VCAM Assay Buffer (200 μl/well). A corresponding second antibody, HRP-conjugated goat anti-mouse IgG (100 μl per well @ 1:800 dilution in VCAM Assay Buffer+1 mg/mL BSA), is then added to each well, followed by a 1 hour incubation at room temperature and concluded by three washes (200 μl/well) with VCAM Assay Buffer. Color development is initiated by addition of 100 μl K-Blue per well (15 mim incubation, room temp) and terminated by addition of 100 μl Red Stop Buffer per well. All plates are then read in a UV/Vis spectrophotometer at […]. Results are calculated as % inhibition of total binding (i.e., VLA-4+VCAM-1 in the absence of test compound).

[2] = biological target: T2, Ramos (VLA-4)/VCAM-1 (Homo sapiens, UniProt P05556+P13612); experiment: Ramos (VLA-4)/VCAM-1 Cell-Based Screening Assay (Ramos-VCAM-1 cell adhesion); details: Calcein-AM labeled Ramos cells, immobilized recombinant human VCAM-1
T2 construct: Ramos cells bearing cell-surface VLA-4; endogenous in cells; host or cells: Ramos cells (VLA-4); soluble VCAM-1 purified from CHO cell culture media
T2 sequence (P13612 34-1032): as the sequence (P13612 34-1032) above
T2 sequence (P05556 21-798): as the sequence (P05556 21-798) above
Procedure: Ramos (VLA-4)/VCAM-1 Cell-Based Screening Assay Protocol
Soluble recombinant human VCAM-1 (mixture of 5- and 7-Ig domain) was purified from CHO cell culture media by immunoaffinity chromatography and maintained in a solution containing 0.1 M Tris-glycine (pH 7.5), 0.1 M NaCl, 5 mM EDTA, 1 mM PMSF, […] NaN3 and 10 μg/mL leupeptin. Calcein-AM was purchased from Molecular Probes Inc.
VLA-4 (a4b1 integrin) antagonist activity, defined as the ability to compete with cell-surface VLA-4 for binding to immobilized VCAM-1, was quantitated using a Ramos-VCAM-1 cell adhesion assay. Ramos cells bearing cell-surface VLA-4, were labeled with a fluorescent dye (Calcein-AM) and allowed to bind VCAM-1 in the presence or absence of test compounds. A reduction in fluorescence intensity associated with adherent cells (% inhibition) reflected competitive inhibition of VLA-4 mediated cell adhesion by the test compound.
Initially, this entailed coating 96 well plates (Nunc Maxisorp) with recombinant human VCAM-1 (100 ng in 100 μl PBS), sealing each plate and allowing the plates to stand at 4° C. for ^~ 18 hour. The VCAM-coated plates were subsequently washed twice with 0.05% Tween-20 in PBS, and then blocked for 1 hour (room temperature) with 200 μl of Blocking Buffer (1% BSA/0.02% thimerosal) to reduce non-specific binding. Following the incubation with Blocking Buffer, plates were inverted, blotted and the remaining buffer aspirated. Each plate was then washed with 300 μl PBS, inverted and the remaining PBS aspirated.
Test compounds were dissolved in 100% DMSO and then diluted 1:25 in VCAM Cell Adhesion Assay Buffer (4 mM CaCl2, 4 mM MgCl2 in 50 mM TRIS-HCl, pH 7.5) (final DMSO=4%). A series of eight 1:4 dilutions were performed for each compound (general concentration range of 1 nM-12,500 nM). 100 μl/well of each dilution was added to the VCAM-coated plates, followed by 100 μl of Ramos cells (200,000 cells/well in 1% BSA/PBS). Plates containing test compounds and Ramos cells were allowed to incubate for 45 min at room temperature, after which 165 μl/well PBS was added. Plates were inverted to remove non-adherent cells, blotted and 300 μl/well PBS added. Plates were again inverted, blotted and the remaining buffer gently aspirated. 100 μl Lysis Buffer (0.1% SDS in 50 mM TRIS-HCl, pH 8.5) was added to each well and agitated for 2 min on a rotary shaking platform. The plates were then read for fluorescence intensity on a Cytofluor 2300 (Millipore) fluorecence measurement system (excitation=485 nm, emission=530 nm).

| SMILES | pIC50 [1] | pIC50 [2] |
| --- | --- | --- |
| CS(=O)(=O)N1CC[C@H](c2ccc(O)cc2)[C@H]1C(=O)N[C@H]1CSSC[C@@H](C(=O)O)NC(=O)C2(CCCC2)CCNC1=O [Example 22, (8R,13R)-13-[[[1-methylsulfonyl-3-(R)-(4-hydroxyphenyl)-2-(S)pyrrolidinyl]carbonyl]amino]-6,14-dioxo-10,11-dithia-7,15-diazaspiro[4. 12]-heptadecane-8-carboxylic Acid] | 9.77 |  |
| CC(=O)N1CC[C@H](c2ccc(O)cc2)[C@H]1C(=O)N[C@H]1CSSC[C@@H](C(=O)O)NC(=O)C2(CCCCC2)CCNC1=O [Example 19, (9R,14R)-14-[[[1-acetyl-3-(R)-(4-hydroxyphenyl)-2-(S)-pyrrolidinyl]-arbonyl]amino]-7,15-dioxo-11,12-dithia-8,16-diazaspiro[5. 12]Octadecane-9-carboxylic Acid] | 9.92 | 9.55 |
| CC(=O)N1CC[C@@H](c2ccc(O)cc2)[C@@H]1C(=O)N[C@H]1CSSC[C@@H](C(=O)O)NC(=O)C2(CCCC2)CCNC1=O [reference compound] | 8.78 | 7.62 |

Other lines, results leading:

| pIC50 [1] | pIC50 [2] | SMILES |
| --- | --- | --- |
| 9.73 | 9.68 | CC(=O)N1CC[C@H](c2ccc(O)cc2)[C@H]1C(=O)N[C@H]1CSSC[C@@H](C(=O)O)NC(=O)C2(CCCC2)CCNC1=O [Example 12, (8R,13R)-13-[[[1-acetyl-3-(R)-(4-hydroxyphenyl)-2-(S)-pyrrolidinyl]carbonyl]amino]-6,14-dioxo-10,11-dithia-7,15-diazaspiro[4. 12]heptadecane-8-carboxylic Acid] |
| 9.72 |  | O=C(O)[C@@H]1CSSC[C@H](NC(=O)[C@H]2NCC[C@@H]2c2ccc(O)cc2)C(=O)NCCC2(CCCC2)C(=O)N1 [Example 26, (8R,13R)-13-[[[3(R)-(4-hydroxyphenyl)-2(S)-pyrrolidinyl]carbonyl]-amino]-6,14-dioxo-10,11-dithia-7,15-diazaspiro[4.12]heptadecane-8-carboxylic Acid] |
| 9.85 | 9.74 | CC(C)(C)C(=O)N1CC[C@H](c2ccc(O)cc2)[C@H]1C(=O)N[C@H]1CSSC[C@@H](C(=O)O)NC(=O)C2(CCCC2)CCNC1=O [Example 24, (8R,13R)-13-[[[1-(2,2-dimethyl-1-oxopropyl)-3(R)-(4-hydroxyphenyl)-2(S)-pyrrolidinyl]carbonyl]amino]-6,14-dioxo-10,11-dithia-7,15-diazaspiro[4. 12]heptadecane-8-carboxylic Acid] |
